Experimental data taken from ChEMBL document CHEMBL1153711, “Synthesis and antimycobacterial evaluation of novel 5,6-dimethoxy-1-oxo-2,5-dihydro-1H-2-indenyl-5,4-substituted phenyl methanone analogues” (Bioorg Med Chem Lett, 2009).
≈ marks a conversion by molar mass, not a printed value.

system: Mycobacterium tuberculosis; test: Antimycobacterial activity against Mycobacterium tuberculosis H37Rv by agar dilution method; format: functional

SMILES | MIC [µM]
COc1cc2c(cc1OC)C(=O)C(C(=O)c1c(Cl)cccc1Cl)C2 (stereo not drawn) | 2.48 (≈ 0.906 µg/mL)
COc1cc2c(cc1OC)C(=O)C(C(=O)c1cccc([N+](=O)[O-])c1)C2 (stereo not drawn) | 3.46 (≈ 1.18 µg/mL)
COc1cc2c(cc1OC)C(=O)C(C(=O)c1ccc(Br)cc1)C2 (stereo not drawn) | 4.94 (≈ 1.85 µg/mL)
COc1cc2c(cc1OC)C(=O)C(C(=O)c1ccc(C#N)cc1)C2 (stereo not drawn) | > 6.25
COc1cc2c(cc1OC)C(=O)C(C(=O)c1ccc(N(C)C)cc1)C2 (stereo not drawn) | 5.94 (≈ 2.02 µg/mL)
COc1ccc(C(=O)C2Cc3cc(OC)c(OC)cc3C2=O)cc1 (stereo not drawn) | > 6.25
COc1cc2c(cc1OC)C(=O)C(C(=O)c1ccc(Cl)cc1)C2 (stereo not drawn) | 1.52 (≈ 0.503 µg/mL)
COc1cc2c(cc1OC)C(=O)C(C(=O)c1ccccc1)C2 (stereo not drawn) | 6.62 (≈ 1.96 µg/mL)
COc1ccc(C(=O)C2Cc3cc(OC)c(OC)cc3C2=O)cc1OC (stereo not drawn) | > 6.25
COc1cc2c(cc1OC)C(=O)C(C(=O)c1cc(OC)c(OC)c(OC)c1)C2 (stereo not drawn) | > 6.25
COc1cc2c(cc1OC)C(=O)C(C(=O)c1ccc(F)cc1)C2 (stereo not drawn) | 0.1 (≈ 0.0314 µg/mL)
COc1cc2c(cc1OC)C(=O)C(C(=O)c1ccccc1Cl)C2 (stereo not drawn) | 1.82 (≈ 0.602 µg/mL)
NNC(=O)c1ccncc1 [ISONIAZID] | 0.75 (≈ 0.103 µg/mL)
